Data reported in ChEMBL document CHEMBL4417637, “Sensitization of cancer cells to nampt inhibitors by nicotinic acid phosphoribosyltransferase neutralization” (2017).
Active and inactive are the calls of the source. No cut-off for these calls is given here.

Tests used:
[1] = Toxicity in NAMPT inhibitor 10 mg/kg, ip bid FK866 treated SCID mouse xenografted with human NAMALWA cells assessed as induction of obvious signs of clinical toxicity at 35 mg/kg, ip bid up to 45 days; assay type: organism-based; details: in vivo, 1080 h
NAMALVA = assay: Potentiation of NAMPT inhibitor 10 mg/kg, ip bid FK866-induced antitumor activity in human NAMALWA cells xenografted in SCID mouse assessed as increase in mouse survival at 35 mg/kg, ip bid up to 45 days; assay type: functional, organism-based
[2] = biological target: T1, Nicotinate phosphoribosyltransferase (Homo sapiens) (UniProt Q6XQN6); assay: Inhibition of NAPRT in human OVCAR5 cells assessed as potentiation of NAMPT inhibitor FK866-induced cytotoxicity by measuring reduction in cell viability at 300 uM to 1 mM incubated for 72 hrs by SRB assay; assay type: cell-based
T1 sequence (whole entry): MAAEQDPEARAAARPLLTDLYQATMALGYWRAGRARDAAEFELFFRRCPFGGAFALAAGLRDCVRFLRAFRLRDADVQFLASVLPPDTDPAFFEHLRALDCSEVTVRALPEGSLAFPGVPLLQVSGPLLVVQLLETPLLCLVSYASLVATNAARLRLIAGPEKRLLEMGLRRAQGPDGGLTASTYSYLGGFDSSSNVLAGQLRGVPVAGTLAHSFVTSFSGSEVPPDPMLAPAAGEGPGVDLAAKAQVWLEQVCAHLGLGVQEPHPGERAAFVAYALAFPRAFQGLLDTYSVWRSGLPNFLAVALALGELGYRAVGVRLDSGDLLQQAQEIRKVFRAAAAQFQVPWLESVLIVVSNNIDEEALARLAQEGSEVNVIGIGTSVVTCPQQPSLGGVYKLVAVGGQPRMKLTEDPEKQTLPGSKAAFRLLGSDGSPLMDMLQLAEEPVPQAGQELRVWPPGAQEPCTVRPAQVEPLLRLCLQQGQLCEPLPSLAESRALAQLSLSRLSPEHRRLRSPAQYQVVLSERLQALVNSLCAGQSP

Row | SMILES | Activity [1] | Activity (NAMALVA) | inhibition [2]
1 | CC(=O)Oc1ccccc1C(=O)O [ASPIRIN] | Non-Toxic | Active | 
2 | O=C(O)c1ccccc1O |  |  | Active
